Test results as given in paper PMC10812672, “Short Antimicrobial Peptide Derived from the Venom Gland Transcriptome of Pamphobeteus verdolaga Increases Gentamicin Susceptibility of Multidrug-Resistant Klebsiella pneumoniae” (Antibiotics, 2023).
Ends that are not written are not given here.

System: multidrug-resistant (MDR) strain of K. pneumoniae, clinical isolate
Experiment: microbe, parasite or virus in culture
Format: cell-based, Klebsiella pneumoniae
Conditions: MDR K. pneumoniae clinical isolate

With WKKIKKFF-NH2 [PvAMP66] the “MIC” value was 3.51 µg/mL, the IC50 (95% confidence interval in parentheses, read-out: IC50) was 15.8 µM and the “MIC” value (peptides 1.56–200 µM, antibiotics 1.56–100 µM, 24 h 37 °C) was 25.00 µM.
